Experimental data published in PMC11352108, “Anti-Biofilm and Anti-Inflammatory Properties of the Truncated Analogs of the Scorpion Venom-Derived Peptide IsCT against Pseudomonas aeruginosa” (Antibiotics, 2024).
Where no end group is shown, it is not given here.

Assays:
[1] = system: RAW 264.7 macrophages; experiment: Cytotoxicity assay (MTT); format: cell-based, murine; details: 48 h; for % Viability, Exp.1: replicate Exp.1; for % Viability, Exp.2: replicate Exp.2
Protocol: The murine macrophage cell line RAW264.7 (TIB-71) was obtained from American Type Culture Collection (ATCC; Manassas, VA, USA). RAW 264.7 cells were cultured in DMEM (HyClone^TM, Logan, UT, USA) supplemented with 10% (v/v) heat-inactivated fetal bovine serum (Gibco, Fisher Scientific, Göteborg, Sweden), 2 mM L-glutamine (PAA Laboratories GmbH, Pasching, Austria), 10 mM 4-(2-hydroxyethyl)-1-piperazineethanesulfonic acid (HyClone^TM, Logan, UT, USA), 100 U/mL penicillin, and 100 µg/mL streptomycin (PAA). RAW 264.7 cells were grown in a 5% CO2 at 37 °C.
The cytotoxic effect of the IsCT-Δ6-8 peptide was assessed using the tetrazolium-based 3-(4,5-dimethylthiazol-2-yl)-2,5-diphenyltetrazolium bromide (MTT) assay. RAW 264.7 cells at 3.5 × 10^5 cells were seeded in a 96-well microtiter plate and incubated at 37 °C for 1 h under 5% CO2. Then, the cells were treated with or without the IsCT-Δ6-8 peptide at concentrations ranging from 37.5 μM to 150 μM for 48 h at 37 °C under 5% CO2. After incubation, 20 µL of MTT (5 mg/mL) was added in each well, and the plate was incubated for another 3 h. The supernatant was then discarded, and 100 µL of DMSO was added to solubilize formazan crystals. The plate was subsequently read at OD540 nm using a BioTek Synergy HT microplate reader. The percent cell viability was calculated using the following equation:(2) % Cell viability=OD of treated cells/OD of untreated cells×100

[2] = system: NO production in P. aeruginosa LPS-stimulated RAW 264.7 macrophages; experiment: Nitric oxide measurement (Griess reagent); format: cell-based, murine; details: 48 h; for Nitrite (µM), Exp.1: replicate Exp.1; for Nitrite (µM), Mean: mean of 2 experiments, LPS alone 24.5278; for Nitrite (µM), Exp.2: replicate Exp.2
Protocol: (§1) RAW 264.7 cells (3.5 × 10^5) were stimulated with P. aeruginosa lipopolysaccharide (100 ng/mL; Sigma, St. Louis, MO, USA) in the presence or absence of the IsCT-Δ6-8 peptide (37.5–150 μM, final concentration). After incubation at 37 °C under 5% CO2 for 48 h, supernatants were collected. The levels of nitrite (a stable breakdown of NO) were then determined using the Griess reagent system (Promega, Madison, Wisconsin, USA). The IL-6 levels in culture supernatant were quantified with the BioLegend ELISA MAXTM Deluxe Set according to the manufacturer’s protocols.

[3] = system: P. aeruginosa PAO1; experiment: Growth curve assay; format: cell-based, Pseudomonas aeruginosa; details: 150 μM; for OD600nm, Mean / OD600nm, Exp.1 / OD600nm, Exp.2: 37 °C, 150 rpm; for OD600nm, Mean: mean of 2 experiments; for OD600nm, Exp.1: replicate Exp.1; for OD600nm, Exp.2: replicate Exp.2
Protocol: The effect of the IsCT-Δ6-8 peptide on the growth of P. aeruginosa was assessed as previously described. A culture of P. aeruginosa PAO1 was grown at a concentration of 10^6 CFU/ mL in the presence or absence of the IsCT-Δ6-8 peptide (final concentration, 150 µM) at 37 °C, with agitation at 150 rpm. The OD600 nm was then recorded at 0, 6, 12, 18, and 24 h.

[4] = system: IL-6 production in P. aeruginosa LPS-stimulated RAW 264.7 macrophages; experiment: IL-6 measurement (sandwich ELISA); format: cell-based, murine; details: 48 h; for IL-6 (pg/mL), Exp.1: replicate Exp.1; for IL-6 (pg/mL), Mean: mean of 2 experiments, LPS alone 4081.029; for IL-6 (pg/mL), Exp.2: replicate Exp.2
Protocol: as §1

[5] = system: sheep red blood cells; experiment: Hemolytic assay; format: cell-based
Protocol: A hemolytic assay was carried out according to the previously described method using commercially sourced sheep red blood cells (Professional Nanomed Company Limited, Bangkok, Thailand). One hundred microliters of a 2% sheep red blood cell suspension prepared in phosphate-buffered saline (PBS) pH 7.4. was incubated for 1 h at 37 °C with 100 μL of the studied peptides (final concentration of 150 µM). After centrifugation at 1000× g for 5 min, 100 μL of supernatant was transferred to new 96-well plates, and the release of hemoglobin was monitored, measuring an optical density (OD) at 405 nm using a BioTek Synergy HT microplate reader. Red blood cells treated with PBS pH 7.4 were used as a negative control, while those treated with 1% Triton X-100 were used as a positive control. The percent hemolysis was calculated as follows:(1) % Hemolysis=OD405 nm of the test peptide−OD405 nm of negative control/OD405 nm of positive control−OD405 nm of negative control × 100

[6] = peptide 37.5 µM with LPS 100 ng/mL, 37 °C
[7] = peptide 37.5 µM with LPS 100 ng/mL
[8] = peptide 75 µM with LPS 100 ng/mL
[9] = peptide 150 µM with LPS 100 ng/mL

Sequence: ILGKIIKSLF [IsCT-Δ6-8]
- % Viability, Exp.1 ([1]; 37.5 µM, 37 °C, 5% CO2, MTT, OD 540 nm): 109.403%
- % Viability, Exp.2 ([1]; 37.5 µM, MTT): 94.438%
- % Viability, Exp.1 ([1]; 75 µM, MTT): 102.742%
- % Viability, Exp.2 ([1]; 75 µM, MTT): 96.302%
- % Viability, Exp.1 ([1]; 150 µM, MTT): 94.479%
- % Viability, Exp.2 ([1]; 150 µM, MTT): 100.171%
- Viability of RAW 264.7 macrophages (in words) ([1]; 37.5–150 μM, MTT, compared with untreated control): not significantly changed
- Effect on LPS-induced nitrite increase (in words) ([2]; 37.5–150 μM, in particular at 150 μM (p < 0.05 vs LPS-stimulated)): reduced
- Nitrite (µM), Exp.1 [2, 6]: 24.3889 µM
- Nitrite (µM), Mean [2, 7]: 24.2500 µM
- Nitrite (µM), Exp.2 [2, 7]: 24.1111 µM
- Nitrite (µM), Mean [2, 8]: 23.5556 µM
- Nitrite (µM), Exp.1 [2, 8]: 23.8889 µM
- Nitrite (µM), Exp.2 [2, 8]: 23.2222 µM
- Nitrite (µM), Mean [2, 9]: 21.0833 µM
- Nitrite (µM), Exp.1 [2, 9]: 21.5000 µM
- Nitrite (µM), Exp.2 [2, 9]: 20.6667 µM
- OD600nm, Mean ([3]; 0 h): 0.0000
- OD600nm, Exp.1 ([3]; 0 h): 0.0000
- OD600nm, Exp.2 ([3]; 0 h): 0.0000
- OD600nm, Mean ([3]; 6 h, untreated control 0.3954): 0.2100
- OD600nm, Exp.1 ([3]; 6 h, untreated control 0.3955): 0.2055
- OD600nm, Exp.2 ([3]; 6 h, untreated control 0.3953): 0.2145
- OD600nm, Mean ([3]; 12 h, untreated control 0.5425): 0.4723
- OD600nm, Exp.1 ([3]; 12 h, untreated control 0.5353): 0.4765
- OD600nm, Exp.2 ([3]; 12 h, untreated control 0.5498): 0.4680
- OD600nm, Mean ([3]; 18 h, untreated control 0.6067): 0.5898
- OD600nm, Exp.1 ([3]; 18 h, untreated control 0.6213): 0.5830
- OD600nm, Exp.2 ([3]; 18 h, untreated control 0.5922): 0.5965
- OD600nm, Mean ([3]; 24 h, untreated control 0.6209): 0.6033
- OD600nm, Exp.1 ([3]; 24 h, untreated control 0.6330): 0.5450
- OD600nm, Exp.2 ([3]; 24 h, untreated control 0.6088): 0.6615
- Growth of P. aeruginosa at early time points (in words) ([3]; 6 h and 12 h, compared to untreated control culture): slow growth rate
- Growth of P. aeruginosa after prolonged exposure (in words) ([3]; 18 h and 24 h, versus untreated control (p > 0.05)): comparable to that of the untreated control culture
- Effect on LPS-induced IL-6 elevation (in words) ([4]; 37.5–150 μM, especially at 150 μM (p < 0.05 vs LPS-stimulated)): reduced
- IL-6 (pg/mL), Exp.1 [4, 6]: 4036.912 pg/mL
- IL-6 (pg/mL), Mean [4, 7]: 3742.794 pg/mL
- IL-6 (pg/mL), Exp.2 [4, 7]: 3448.676 pg/mL
- IL-6 (pg/mL), Mean [4, 8]: 3664.363 pg/mL
- IL-6 (pg/mL), Exp.1 [4, 8]: 3953.578 pg/mL
- IL-6 (pg/mL), Exp.2 [4, 8]: 3375.147 pg/mL
- IL-6 (pg/mL), Mean [4, 9]: 3304.069 pg/mL
- IL-6 (pg/mL), Exp.1 [4, 9]: 3514.853 pg/mL
- IL-6 (pg/mL), Exp.2 [4, 9]: 3093.284 pg/mL
- Hemolytic activity (in words) ([5]; sheep erythrocytes, concentrations as high as 150 μM): decreased hemolytic activity
- % Hemolysis, Exp.1 ([5]; sheep red blood cells, 1 h, 37 °C, peptides 150 μM (Triton X-100 1%), replicate Exp.1): 1.56%
- % Hemolysis, Exp.2 ([5]; sheep red blood cells, 1 h, 37 °C, peptides 150 μM (Triton X-100 1%), replicate Exp.2): 0.72%
- % Hemolysis, Exp.3 ([5]; sheep red blood cells, 1 h, 37 °C, peptides 150 μM (Triton X-100 1%), replicate Exp.3): 3.45%
